# Measured values from PubChem BioAssay (NCI).
#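 Step 1: Grow cells in 96-well plates. Step 2: Expose to compound for 48 hours at 5 concentrations. Step 3: Interpolate endpoints linearly; if unreached, use highest concentration. GI50 = concentration required for 50% inhibition of growth. Definition used: TGI = concentration required for complete inhibition of growth.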
# How the values were obtained:
# Experiment in all cases: DTP human tumour cell line panel, 48 h
# HCT-116 colon = tested on: HCT-116 colon
# LOX IMVI melanoma = tested on: LOX IMVI melanoma
# COLO 205 colon = tested on: COLO 205 colon
# PC-3 prostate = tested on: PC-3 prostate
# MOLT-4 leukemia = tested on: MOLT-4 leukemia
# M14 melanoma = tested on: M14 melanoma
# RXF 393 renal = tested on: RXF 393 renal
# HOP-92 NSCLC = tested on: HOP-92 NSCLC
# SR leukemia = tested on: SR leukemia
# SW-620 colon = tested on: SW-620 colon
# UACC-257 melanoma = tested on: UACC-257 melanoma
# SN12C renal = tested on: SN12C renal
# HCC-2998 colon = tested on: HCC-2998 colon
# OVCAR-5 ovarian = tested on: OVCAR-5 ovarian
# NCI/ADR-RES ovarian = tested on: NCI/ADR-RES ovarian
# NCI-H522 lung = tested on: NCI-H522 lung
# OVCAR-4 ovarian = tested on: OVCAR-4 ovarian
# NCI-H23 lung = tested on: NCI-H23 lung
# 786-0 renal = tested on: 786-0 renal
# NCI-H460 lung = tested on: NCI-H460 lung
# SF-539 CNS = tested on: SF-539 CNS
# MDA-MB-435 = tested on: MDA-MB-435
# ACHN renal = tested on: ACHN renal
# CAKI-1 renal = tested on: CAKI-1 renal
# BT-549 breast = tested on: BT-549 breast
# SNB-75 CNS = tested on: SNB-75 CNS
# SK-MEL-5 melanoma = tested on: SK-MEL-5 melanoma
# MDA-MB-231 breast = tested on: MDA-MB-231 breast
# RPMI-8226 leukemia = tested on: RPMI-8226 leukemia
# OVCAR-3 ovarian = tested on: OVCAR-3 ovarian
# CCRF-CEM leukemia = tested on: CCRF-CEM leukemia
# SK-OV-3 ovarian = tested on: SK-OV-3 ovarian
# T-47D breast = tested on: T-47D breast
# TK-10 renal = tested on: TK-10 renal
# SNB-19 CNS = tested on: SNB-19 CNS
# DU-145 prostate = tested on: DU-145 prostate
# HS 578T breast = tested on: HS 578T breast
# OVCAR-8 ovarian = tested on: OVCAR-8 ovarian
# SK-MEL-28 melanoma = tested on: SK-MEL-28 melanoma
# HCT-15 colon = tested on: HCT-15 colon
# HOP-62 NSCLC = tested on: HOP-62 NSCLC
# K-562 leukemia = tested on: K-562 leukemia
# MALME-3M melanoma = tested on: MALME-3M melanoma
# U251 CNS = tested on: U251 CNS
# UO-31 renal = tested on: UO-31 renal
# SF-268 CNS = tested on: SF-268 CNS
# UACC-62 melanoma = tested on: UACC-62 melanoma
# A498 renal = tested on: A498 renal
# HT29 colon = tested on: HT29 colon
# IGROV1 ovarian = tested on: IGROV1 ovarian
# SF-295 CNS = tested on: SF-295 CNS
# A549 NSCLC = tested on: A549 NSCLC
# SK-MEL-2 melanoma = tested on: SK-MEL-2 melanoma
# NCI-H226 lung = tested on: NCI-H226 lung
# MCF7 breast = tested on: MCF7 breast
structure (smiles),measurement,setting,value
O=S(=O)(c1ccc(NC(=S)NCc2cccnc2)cc1)N1CCCCC1,GI50,HCT-116 colon,0.47 µM
same,TGI,HCT-116 colon,> 100 µM
same,GI50,LOX IMVI melanoma,6.93 µM
same,TGI,LOX IMVI melanoma,> 100 µM
same,GI50,COLO 205 colon,8.63 µM
same,TGI,COLO 205 colon,> 100 µM
same,GI50,PC-3 prostate,1.5 µM
same,TGI,PC-3 prostate,> 100 µM
same,GI50,MOLT-4 leukemia,40.3 µM
same,TGI,MOLT-4 leukemia,> 100 µM
same,GI50,M14 melanoma,3.9 µM
same,TGI,M14 melanoma,> 100 µM
same,GI50,RXF 393 renal,72.4 µM
same,TGI,RXF 393 renal,> 100 µM
same,GI50,HOP-92 NSCLC,11.1 µM
same,TGI,HOP-92 NSCLC,> 100 µM
same,GI50,SR leukemia,36.8 µM
same,TGI,SR leukemia,> 100 µM
same,GI50,SW-620 colon,0.579 µM
same,TGI,SW-620 colon,> 100 µM
same,GI50,UACC-257 melanoma,42.6 µM
same,TGI,UACC-257 melanoma,> 100 µM
same,GI50,SN12C renal,0.21 µM
same,TGI,SN12C renal,> 100 µM
same,GI50,HCC-2998 colon,> 100 µM
same,TGI,HCC-2998 colon,> 100 µM
same,GI50,OVCAR-5 ovarian,5.46 µM
same,TGI,OVCAR-5 ovarian,> 100 µM
same,GI50,NCI/ADR-RES ovarian,8.36 µM
same,TGI,NCI/ADR-RES ovarian,> 100 µM
same,GI50,NCI-H522 lung,10.1 µM
same,TGI,NCI-H522 lung,> 100 µM
same,GI50,OVCAR-4 ovarian,23 µM
same,TGI,OVCAR-4 ovarian,> 100 µM
same,GI50,NCI-H23 lung,28.6 µM
same,TGI,NCI-H23 lung,> 100 µM
same,GI50,786-0 renal,> 100 µM
same,TGI,786-0 renal,> 100 µM
same,GI50,NCI-H460 lung,7.67 µM
same,TGI,NCI-H460 lung,> 100 µM
same,GI50,SF-539 CNS,0.446 µM
same,TGI,SF-539 CNS,> 100 µM
same,GI50,MDA-MB-435,3.04 µM
same,TGI,MDA-MB-435,> 100 µM
same,GI50,ACHN renal,29.3 µM
same,TGI,ACHN renal,> 100 µM
same,GI50,CAKI-1 renal,20.4 µM
same,TGI,CAKI-1 renal,> 100 µM
same,GI50,BT-549 breast,> 100 µM
same,TGI,BT-549 breast,> 100 µM
same,GI50,SNB-75 CNS,25.6 µM
same,TGI,SNB-75 CNS,> 100 µM
same,GI50,SK-MEL-5 melanoma,12.1 µM
same,TGI,SK-MEL-5 melanoma,45.8 µM
same,GI50,MDA-MB-231 breast,26.4 µM
same,TGI,MDA-MB-231 breast,> 100 µM
same,GI50,RPMI-8226 leukemia,2.17 µM
same,TGI,RPMI-8226 leukemia,> 100 µM
same,GI50,OVCAR-3 ovarian,52.6 µM
same,TGI,OVCAR-3 ovarian,> 100 µM
same,GI50,CCRF-CEM leukemia,0.823 µM
same,TGI,CCRF-CEM leukemia,> 100 µM
same,GI50,SK-OV-3 ovarian,> 100 µM
same,TGI,SK-OV-3 ovarian,> 100 µM
same,GI50,T-47D breast,7.33 µM
same,TGI,T-47D breast,> 100 µM
same,GI50,TK-10 renal,47.5 µM
same,TGI,TK-10 renal,> 100 µM
same,GI50,SNB-19 CNS,9.5 µM
same,TGI,SNB-19 CNS,> 100 µM
same,GI50,DU-145 prostate,6.12 µM
same,TGI,DU-145 prostate,> 100 µM
same,GI50,HS 578T breast,8.65 µM
same,TGI,HS 578T breast,> 100 µM
same,GI50,OVCAR-8 ovarian,0.0991 µM
same,TGI,OVCAR-8 ovarian,> 100 µM
same,GI50,SK-MEL-28 melanoma,50.4 µM
same,TGI,SK-MEL-28 melanoma,> 100 µM
same,GI50,HCT-15 colon,13.6 µM
same,TGI,HCT-15 colon,> 100 µM
same,GI50,HOP-62 NSCLC,> 100 µM
same,TGI,HOP-62 NSCLC,> 100 µM
same,GI50,K-562 leukemia,1.38 µM
same,TGI,K-562 leukemia,> 100 µM
same,GI50,MALME-3M melanoma,84.9 µM
same,TGI,MALME-3M melanoma,> 100 µM
same,GI50,U251 CNS,1.82 µM
same,TGI,U251 CNS,> 100 µM
same,GI50,UO-31 renal,21.5 µM
same,TGI,UO-31 renal,> 100 µM
same,GI50,SF-268 CNS,17.2 µM
same,TGI,SF-268 CNS,> 100 µM
same,GI50,UACC-62 melanoma,23.4 µM
same,TGI,UACC-62 melanoma,> 100 µM
same,GI50,A498 renal,15 µM
same,TGI,A498 renal,> 100 µM
same,GI50,HT29 colon,90.5 µM
same,TGI,HT29 colon,> 100 µM
same,GI50,IGROV1 ovarian,23.3 µM
same,TGI,IGROV1 ovarian,> 100 µM
same,GI50,SF-295 CNS,13 µM
same,TGI,SF-295 CNS,> 100 µM
same,GI50,A549 NSCLC,11 µM
same,TGI,A549 NSCLC,> 100 µM
same,GI50,SK-MEL-2 melanoma,16.6 µM
same,TGI,SK-MEL-2 melanoma,> 100 µM
same,GI50,NCI-H226 lung,39.5 µM
same,TGI,NCI-H226 lung,> 100 µM
same,GI50,MCF7 breast,12.7 µM
same,TGI,MCF7 breast,> 100 µM
